{
  "source": "patent US8017350B2",
  "about": "“Glimepiride- and insulin-induced glycosylphosphatidylinositol-specific phospholipase C regulation” (Sanofi-Aventis Deutschland GmbH, priority 2004, dated 2011)",
  "biological_target": "T1, PI-PLC (B. cereus) (Bacillus cereus, UniProt P14262)",
  "T1 construct": "purchased SigmalAldrich (Deisenhofen, Germany)",
  "T1 sequence (P14262 32-329 limits assumed)": "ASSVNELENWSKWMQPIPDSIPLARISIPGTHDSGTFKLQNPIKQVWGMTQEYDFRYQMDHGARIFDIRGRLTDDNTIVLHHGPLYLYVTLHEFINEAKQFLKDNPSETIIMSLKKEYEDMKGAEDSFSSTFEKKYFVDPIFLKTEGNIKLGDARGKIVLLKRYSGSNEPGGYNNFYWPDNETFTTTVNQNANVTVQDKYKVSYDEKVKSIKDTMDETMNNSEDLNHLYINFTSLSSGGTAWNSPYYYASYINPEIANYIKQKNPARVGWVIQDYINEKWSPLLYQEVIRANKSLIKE",
  "assay": "PI-PLC (B. cereus) assay, AChE substrate, TX-114 partitioning",
  "type": "biochemical",
  "protocol": "GPI-PLD (rat serum) was assayed according to “Hari et al. (1997) Biochim. Biophys. Acta 1355: 293-302” by incubation with 10 μl of human placental aP solution (100 U/ml in 10 mM Hepes/NaOH, pH 7.0, 150 mM NaCl) in 100 μl of 200 mM Tris/maleate (pH 7.0) and 1% Nonidet P-40 for 10 min at 37° C. and subsequent termination of the reaction by addition of 0.4 ml of ice-cold stop buffer (10 mM Hepes/NaOH, pH 7.0, 150 mM NaCl, 0.1 mM MgCl2 and 0.01 mM zinc acetate). GPI-PLC (T. brucei) was assayed as described in “Mensa-Wilmot et al. (1995) Methods Enzymol. 250: 641-655” by incubation with 5 μl of human placental aP solution (see above) in 50 μl of 50 mM Tris/HCl (pH 8.0), 0.25% Nonidet P-40 and 5 mM EDTA for 30 min at 37° C. and subsequent termination of the reaction by addition of 0.45 ml of stop buffer. PI-PLC (B. cereus) and adipocyte GPI-PLC (5-25 μg plasma membranes or hc/lcDIGs) were assayed by incubation with 10 μl of bovine erythrocyte acetylcholinesterase (AChE) solution (12 U/ml in 10 mM Tris/HCl, pH 7.4, 144 mM NaCl, 0.1% TX-100) in 100 μl of 20 mM Hepes/KOH (pH 7.8), 144 mM NaCl, 0.1% TX-100, 0.2 mM MgCl2 for 1 h at 25° C. and subsequent termination by adding 5 μl of glacial acetic acid and then 0.4 ml of 10 mM Tris/HCl (pH 7.4), 144 mM NaCl. Each reaction mixture was subjected to TX-114 partitioning (see below).\nPelleted hc/lcDIGs (10-50 μg protein) or (G)PI-PLC reaction mixtures (0.5 ml) were separated into amphiphilic and hydrophilic proteins using partitioning between TX-114-enriched and depleted phases according to “Bordier, C., (1981) J. Biol, Chem. […]” by suspending in 1 ml of ice-cold TX-114 (1%), 25 mM Tris/HCl (pH 7.4), 144 mM NaCl or mixing with 0.5 ml of ice-cold TX-114 (2%), respectively. After incubation for 1 h on ice, the mixture was layered onto a cushion of 0.4 ml of 0.25 M sucrose and 25 mM Tris/HCl (pH 7.4) on ice. Phase separation was induced by warming up to 37° C. and subsequent centrifugation (10,000×g, 1 min). After re-extraction of the lower TX-114-enriched phase, aliquots of the pooled upper TX-114-depleted phase were measured for 5′-Nuc, aP and AChE activity or precipitated (15 polyethylene glycol 4000) for SDS-PAGE analysis.\nTable 1: GPI-PLC of hcDIGs from rat adipocytes, GPI-PLC from T. brucei and PI-PLC from B. cereus were incubated with solubilized and partially purified bovine erythrocyte AChE or human placental aP in the absence or presence of increasing concentrations (0.05 μM-1 mM) of the inhibitors indicated under appropriate conditions (see Materials and Methods). Cleavage rate was calculated from the amount of hydrophilic AChE and aP activity recovered with the TX-114-depleted phase upon TX-114 partitioning. Means+SD from at least 3 independent incubations with partitioning/enzyme assays in quadruplicate are given. n.a., not applicable.\nPurified (G)PI-PLC/D from B. cereus, rat serum and T. brucei as well as total plasma membranes (PM) and hc/lcDIGs prepared from isolated rat adipocytes were incubated (10 min, 30° C.) with increasing concentrations of GPI-2350 and then assayed for amphiphilic-to-hydrophilic conversion of AChE and aP by TX-114 partitioning (see Materials and Methods). The lipolytic activity was calculated as % of the control reaction in the absence of GPI-2350 (set at 100%). Means+SD of at least 4 independent incubations with AChE and aP activity measurements in triplicate each are given.",
  "data": [
    {"smiles": "CCCCCCCCCCCCP1(=O)O[C@@H]2[C@H](O)[C@@H](O)[C@H](O)[C@@H](O)[C@@H]2O1", "note": "(stereo partly shown) [GPI-2350, myo-inositol-1,2-cyclo-dodecylphosphonic acid]", "values": [
      {"measurement": "IC50", "setting": "IC50, Table 1, inhibitor 0.05 μM-1 mM", "value": "10 to 20", "unit": "µM"},
      {"measurement": "IC50", "setting": "apparent IC50, FIG. 2", "value": 10, "unit": "µM"},
      {"measurement": "inhibition at 1000 µM", "setting": "read-out: inhibition % at 1 mM", "value": 75, "unit": "%"},
      {"measurement": "reversal of half-maximal inhibition", "setting": "upon 10-fold dilution with excess of fresh GPI-protein substrate", "value": "completely reversed"}
    ]}
  ]
}
